Source: ChEMBL document CHEMBL4257554, “On the inhibition of capsaicin response in dorsal root ganglion neurons by nobilamide B and analogues: a structure-activity relationship study” (Medchemcomm, 2018)
Non-standard residues stand in square brackets, D forms with d. Residues, ends and D or L forms follow the SMILES beside them. *: point of attachment. d(aThr) = C[C@@H](O)[C@@H](N)C(=O)O; Dhb = C/C=C(\N)C(=O)O; Propionyl = CCC(=O)*

Molecular target: Transient receptor potential cation channel subfamily V member 1 (Mus musculus) (UniProt Q704Y3)
Assay: Antagonist activity at TRPV1 channel in mouse DRG neurons assessed as inhibition of capsaicin-induced calcium accumulation at 300 uM incubated for 6 mins by Fura-2-AM dye based fluorescence assay relative to control

Transient receptor potential cation channel subfamily V member 1 (Mus musculus), sequence (Q704Y3 whole entry): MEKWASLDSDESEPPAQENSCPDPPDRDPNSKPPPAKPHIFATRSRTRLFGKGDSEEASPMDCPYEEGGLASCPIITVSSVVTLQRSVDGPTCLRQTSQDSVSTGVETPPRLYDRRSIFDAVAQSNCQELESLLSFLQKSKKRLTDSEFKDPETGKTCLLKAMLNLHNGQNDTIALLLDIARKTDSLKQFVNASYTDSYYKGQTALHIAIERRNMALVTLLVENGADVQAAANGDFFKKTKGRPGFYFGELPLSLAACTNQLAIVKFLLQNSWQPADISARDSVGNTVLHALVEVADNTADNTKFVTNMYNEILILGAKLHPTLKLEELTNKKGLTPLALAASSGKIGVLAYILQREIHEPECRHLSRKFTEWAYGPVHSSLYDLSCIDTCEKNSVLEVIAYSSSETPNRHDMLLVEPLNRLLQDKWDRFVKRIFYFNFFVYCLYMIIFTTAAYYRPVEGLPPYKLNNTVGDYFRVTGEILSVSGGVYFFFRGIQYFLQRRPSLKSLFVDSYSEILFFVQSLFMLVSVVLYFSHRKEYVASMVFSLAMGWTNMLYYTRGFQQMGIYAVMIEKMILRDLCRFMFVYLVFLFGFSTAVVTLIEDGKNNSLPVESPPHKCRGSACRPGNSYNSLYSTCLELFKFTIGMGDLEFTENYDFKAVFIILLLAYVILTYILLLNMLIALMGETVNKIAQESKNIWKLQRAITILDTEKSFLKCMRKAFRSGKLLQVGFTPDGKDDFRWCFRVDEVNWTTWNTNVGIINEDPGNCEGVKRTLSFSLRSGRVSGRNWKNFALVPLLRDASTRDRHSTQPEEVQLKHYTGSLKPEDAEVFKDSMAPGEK

| Compound | inhibition [%] |
| --- | --- |
| C/C=C(\NC(=O)[C@H](C)NC(=O)[C@@H](NC(=O)[C@H](NC(=O)[C@H](Cc1ccccc1)NC(=O)[C@@H](CC(C)C)NC(=O)[C@H](C)NC(=O)CC)[C@@H](C)O)C(C)C)C(=O)O | 6.47 |
| CCC(=O)N[C@H](Cc1ccccc1)C(=O)N[C@H](CC(C)C)C(=O)N[C@@H](Cc1ccccc1)C(=O)N[C@@H](C(=O)N[C@H](C(=O)N[C@@H](C)C(=O)N[C@@H](C)C(=O)O)C(C)C)[C@@H](C)O | 35.6 |
| C/C=C(\NC(=O)[C@H](C)NC(=O)[C@@H](NC(=O)[C@H](NC(=O)[C@H](Cc1ccccc1)NC(=O)[C@H](C)NC(=O)[C@@H](Cc1ccccc1)NC(=O)CC)[C@@H](C)O)C(C)C)C(=O)O | 3.27 |
| C/C=C(\NC(=O)[C@H](C)NC(=O)[C@@H](NC(=O)[C@H](NC(=O)[C@H](C)NC(=O)[C@@H](CC(C)C)NC(=O)[C@@H](Cc1ccccc1)NC(=O)CC)[C@@H](C)O)C(C)C)C(=O)O | 23.5 |

The remaining lines, values ahead:

| inhibition [%] | Compound |
| --- | --- |
| 27.8 | C/C=C(\NC(=O)[C@H](C)NC(=O)[C@H](C)NC(=O)[C@H](NC(=O)[C@H](Cc1ccccc1)NC(=O)[C@@H](CC(C)C)NC(=O)[C@@H](Cc1ccccc1)NC(=O)CC)[C@@H](C)O)C(=O)O |
| 33.6 | C/C=C(\NC(=O)[C@H](C)NC(=O)[C@@H](NC(=O)[C@H](NC(=O)[C@H](Cc1ccccc1)NC(=O)[C@@H](CC(C)C)NC(=O)[C@@H](Cc1ccccc1)NC(=O)CC)[C@@H](C)O)C(C)C)C(=O)O (Propionyl-[dF][dL]F[d(aThr)]VA[Dhb]-OH) |
| 5.38 | C/C=C(\NC(=O)[C@H](C)NC(=O)[C@@H](NC(=O)[C@H](C)NC(=O)[C@H](Cc1ccccc1)NC(=O)[C@@H](CC(C)C)NC(=O)[C@@H](Cc1ccccc1)NC(=O)CC)C(C)C)C(=O)O |
